Assay results reported in patent publication US20120295914A1, “COMBINATION OF ADRENERGIC RECEPTOR AGONIST ALPHA-1 OR ALPHA-2, PREFERABLY BRIMONIDINE WITH FILLERS, PREFERABLY HYALURONIC ACID” (Galderma Research & Development, priority 2009, published 2012).

Assays:
[1] = system: dermabraded skin (cutaneous reactions, redness/bleeding)
Excerpt: In Vivo Dermabrasion Assays in Minipig Minizone Model Using a BURANE XL Laser and Skin Interaction with Brimonidine Gel
The objectives of this study were to assess the local dermal effect of single dermal application of Brimonidine Gel placebo or 1% applied on delimited abraded mini-zone (2.8 cm^2 and different dermabraded skin conditions) in the Gottingen® minipig.
One female Göttingen® minipig (naïve), between 4 and 8 months old, received Dermal (topical) application of Brimonidine Gel at 1% on delimited mini-zones (2.8 cm^2, using a Ringflost®).
each zone is clipped free from hair. On the clipped area (dorsum, avoiding the spinal column and the intra-scapular area), 4 minizones (2 on either side) is delimited using Ringflost® and surrounded with an indelible pen.
The animal is anesthetized (Zoletil®) before dermabrasion. Each minizone is disinfected with chlorexidine. The experimental conditions used for each zone is set as follows:
The Brimonidine gel 1% is gently applied 5 minutes prior to the dermabrasion procedure.
The cutaneous reaction is evaluated immediately, and 2-5 and 10 minutes after the dermabrasion procedure. The skin is examined to evaluate the degree of erythema, edema, desquamation, scab formation and any other lesions. Cutaneous reaction is evaluated according to the grading scale describe in “OCDE Guideline No. 404. Acute dermal irritation/corrosion”. […]

[2] = in vivo; cited from earlier work
α2A-adrenoceptor = α2A-adrenoceptor (Sus scrofa, UniProt P18871); settings: porcine species; Wikberg-Matsson and Simonsen 2001; cited from earlier work
Chain of α2A-adrenoceptor (P18871 whole entry): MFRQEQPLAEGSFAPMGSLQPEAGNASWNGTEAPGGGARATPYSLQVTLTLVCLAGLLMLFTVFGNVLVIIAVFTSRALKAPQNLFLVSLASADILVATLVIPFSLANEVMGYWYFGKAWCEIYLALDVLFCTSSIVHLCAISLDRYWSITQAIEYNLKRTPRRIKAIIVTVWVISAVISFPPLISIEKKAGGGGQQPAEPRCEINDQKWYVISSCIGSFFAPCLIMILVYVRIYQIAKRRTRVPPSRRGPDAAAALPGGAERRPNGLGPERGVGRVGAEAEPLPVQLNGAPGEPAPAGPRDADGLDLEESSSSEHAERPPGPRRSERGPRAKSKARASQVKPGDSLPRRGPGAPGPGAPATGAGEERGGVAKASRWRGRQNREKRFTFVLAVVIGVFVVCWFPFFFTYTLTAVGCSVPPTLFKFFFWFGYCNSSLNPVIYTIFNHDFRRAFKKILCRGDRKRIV

In the case of `Brc1c(NC2=NCCN2)ccc2nccnc12` [Brimonidine, (5-Bromo-quinoxalin-6-yl)-(4,5-dihydro-1H-imidazol-2-yl)-amine], the “cutaneous reactions (bruising or bleeding) during aesthetic or surgery procedures” value ([1]; Brimonidine gel 1% topical on dermabraded minizones, conclusion of Example 3) is given as “capable of decreasing cutaneous reactions”, the “vasoconstrictor effect (comparative analysis of pictures Z3 vs Z4)” value ([1]; Brimonidine gel 1% topical, applied 5 minutes prior to dermabrasion, 10 j/cm2, 6 passes, treated zone Z4 vs non-treated Z3, one female minipig) is given as “visually more evident starting from 5 min post-dermabrasion until 14 min and beyond” and the half-life [2] is given as 4 h. For the same compound, the vasoconstrictor activity (α2A-adrenoceptor) was “potent vasoconstrictor”.
